According to ChEMBL document CHEMBL1201862, “PubChem BioAssay data set” (2004):
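How tested: cells in 96-well plates exposed to compound for 48 hours at five concentrations. GI50 marks 50% less growth.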 Active and inactive are the calls of the source. No stated cut-off is given here; in the data, active = GI50 up to about 1.1 µM and inactive = higher.

Key:
Test in all cases: NCI anticancer screen, dose series, 48 h
[1] = test system: CCRF-CEM
[2] = test system: EKVX
[3] = test system: MDA-MB-435
[4] = test system: 786-0
[5] = test system: COLO 205
[6] = test system: UACC-257
[7] = test system: OVCAR-4
[8] = test system: Malme-3M
[9] = test system: OVCAR-8
[10] = test system: A549
[11] = test system: MDA-N
[12] = test system: SR
[13] = test system: U-251
[14] = test system: SF-295
[15] = test system: NCI/ADR-RES
[16] = test system: HOP-62
[17] = test system: SW-620
[18] = test system: UO-31
[19] = test system: NCI-H226
[20] = test system: NCI-H460

Measured: GI50

CC(C)CC1[C@@H](OCc2ccccc2)COS(=O)N1Cc1ccccc1 (stereo not given in full)
inactive: [1] 57.1 µM | [2] 38.8 µM | [3] 31.5 µM | [4] 31.2 µM | [5] 57 µM | [6] 30.7 µM | [7] 44.2 µM | [8] 23.3 µM | [9] 39 µM | [10] 46.6 µM | [11] 52.8 µM | [12] 19.9 µM | [13] 29.9 µM | [14] 46.2 µM | [15] 49.4 µM | [16] 56.6 µM | [17] 39.8 µM | [18] 34.6 µM | [19] 47.1 µM

CCN(CC)c1ccc2cc(-c3nnc(-c4ccccc4O)o3)c(=O)oc2c1
inactive: [1] 2.37 µM | [2] 17 µM | [3] 12.9 µM | [4] 8.99 µM | [5] 7.66 µM | [6] 14.3 µM | [7] 6.35 µM | [8] 14.9 µM | [9] 2.4 µM | [10] 13.6 µM | [11] 12.5 µM | [12] 5.87 µM | [13] 7.71 µM | [14] 11.1 µM | [20] 7.08 µM | [15] 10.5 µM | [16] 5.51 µM | [17] 5.75 µM | [18] 10.4 µM

O=C(C/C(=N/O)C(=O)NC1=C(Cl)C(=O)c2ccccc2C1=O)CC(c1ccccc1)c1c(O)c2ccccc2oc1=O (stereo not given)
inactive: [1] 4.56 µM | [2] 14.5 µM | [3] 2.22 µM | [4] 10.4 µM | [5] 13.4 µM | [6] 18.5 µM | [7] 10 µM | [8] 2.08 µM | [9] 10.8 µM | [10] 5.69 µM | [11] 1.72 µM | [12] 7.35 µM | [13] 7.69 µM | [14] 7.93 µM | [20] 3.15 µM | [15] 11.2 µM | [17] 6.58 µM | [18] 14.9 µM | [19] 2.48 µM

Cc1ccc(CC(=O)Nc2ccc(NC(=O)CNC(=O)/C=C/c3ccc(-c4ccccc4)cc3)cc2C(=O)c2ccccc2)cc1
inactive: [1] 4.79 µM | [2] 3.47 µM | [3] 3.66 µM | [4] 2.28 µM | [5] 6.93 µM | [6] 6.32 µM | [8] 2.99 µM | [9] 1.59 µM | [10] 2.03 µM | [11] 4.74 µM | [12] 1.84 µM | [13] 2.77 µM | [14] 2.22 µM | [20] 2.86 µM | [15] 9.71 µM | [16] 2.55 µM | [17] 4.75 µM | [18] 11.8 µM | [19] 2.79 µM

CC(=O)NC1C(OCc2ccccc2)OC(CO)C(O)C1OCC(=O)NC(C)C(=O)NC(CCC(=O)NCCCCCC(=O)Nc1ccc2c(c1)CN1C(=O)c3ccccc3C1=N2)C(N)=O (stereo not given)
inactive: [1] 32.7 µM | [2] > 100 µM | [3] > 100 µM | [4] 82.8 µM | [5] > 100 µM | [6] > 100 µM | [7] > 100 µM | [8] 78.3 µM | [9] 49.5 µM | [10] 72.8 µM | [11] > 100 µM | [12] 17.4 µM | [13] 48.3 µM | [14] 75.7 µM | [20] 43.1 µM | [15] > 100 µM | [16] 41 µM | [17] 43.5 µM | [18] > 100 µM

COc1ccc(NCc2cccc3c(=O)c4ccc(Cl)cc4oc23)cc1
inactive: [1] > 100 µM | [2] > 100 µM | [3] > 100 µM | [4] > 100 µM | [5] > 100 µM | [6] > 100 µM | [7] > 100 µM | [8] > 100 µM | [9] > 100 µM | [10] > 100 µM | [11] > 100 µM | [12] > 100 µM | [13] > 100 µM | [14] > 100 µM | [15] > 100 µM | [16] > 100 µM | [17] > 100 µM | [18] > 100 µM | [19] > 100 µM

Cc1ccc2c(c1)[nH]c(=S)n2C=C1C(=O)CC(C)(C)CC1=O
inactive: [1] > 100 µM | [2] 18.9 µM | [3] > 100 µM | [4] > 100 µM | [5] > 100 µM | [6] > 100 µM | [7] > 100 µM | [9] > 100 µM | [10] > 100 µM | [11] > 100 µM | [12] > 100 µM | [13] > 100 µM | [14] > 100 µM | [20] > 100 µM | [15] > 100 µM | [16] > 100 µM | [17] > 100 µM | [18] > 100 µM | [19] > 100 µM

CCOC(=O)NC(Nc1ccc([N+](=O)[O-])cc1)(C(F)(F)F)C(F)(F)F
inactive: [1] > 100 µM | [2] 75.5 µM | [3] 21.3 µM | [4] > 100 µM | [5] > 100 µM | [6] 70.3 µM | [8] > 100 µM | [9] > 100 µM | [10] 45 µM | [11] 22 µM | [12] 34.2 µM | [13] 85.9 µM | [14] > 100 µM | [20] 40.9 µM | [15] 30.8 µM | [16] > 100 µM | [17] > 100 µM | [18] 27 µM | [19] 40.1 µM

CC(=O)NC1C(OCc2ccccc2)OC(CO)C(O)C1OCC(=O)NC(C)C(=O)NC(CCC(=O)Nc1ccc2c(c1)CN1C(=O)c3ccccc3C1=N2)C(N)=O (stereo not given)
inactive: [1] > 100 µM | [2] > 100 µM | [3] > 100 µM | [4] > 100 µM | [5] > 100 µM | [6] > 100 µM | [7] > 100 µM | [8] > 100 µM | [9] > 100 µM | [10] > 100 µM | [11] > 100 µM | [12] > 100 µM | [13] > 100 µM | [14] > 100 µM | [20] > 100 µM | [15] > 100 µM | [16] > 100 µM | [17] > 100 µM | [18] > 100 µM

O=C(CCc1ccc(O)c(O)c1)c1ccc(O)c(O)c1O
inactive: [1] 10.2 µM | [2] 20 µM | [3] 18.9 µM | [4] 35.2 µM | [5] 17.7 µM | [6] 31.5 µM | [7] 19.7 µM | [8] 28.4 µM | [9] 22.9 µM | [10] 34.2 µM | [11] 15.3 µM | [12] 24.9 µM | [13] 14.8 µM | [14] 18.3 µM | [20] 13 µM | [15] 26.5 µM | [17] 27.4 µM | [18] 52.4 µM | [19] 11.5 µM
